This note sets out measurements from ChEMBL document CHEMBL5291721, “A preclinical secondary pharmacology resource illuminates target-adverse drug reaction associations of marketed drugs” (Nat Commun, 2023).

Test [1] deals with Neuronal acetylcholine receptor subunit alpha-4 (Homo sapiens, UniProt P43681).
The target of another test is T1, Androgen receptor (Homo sapiens, UniProt P10275).
T1 sequence (P10275 whole entry): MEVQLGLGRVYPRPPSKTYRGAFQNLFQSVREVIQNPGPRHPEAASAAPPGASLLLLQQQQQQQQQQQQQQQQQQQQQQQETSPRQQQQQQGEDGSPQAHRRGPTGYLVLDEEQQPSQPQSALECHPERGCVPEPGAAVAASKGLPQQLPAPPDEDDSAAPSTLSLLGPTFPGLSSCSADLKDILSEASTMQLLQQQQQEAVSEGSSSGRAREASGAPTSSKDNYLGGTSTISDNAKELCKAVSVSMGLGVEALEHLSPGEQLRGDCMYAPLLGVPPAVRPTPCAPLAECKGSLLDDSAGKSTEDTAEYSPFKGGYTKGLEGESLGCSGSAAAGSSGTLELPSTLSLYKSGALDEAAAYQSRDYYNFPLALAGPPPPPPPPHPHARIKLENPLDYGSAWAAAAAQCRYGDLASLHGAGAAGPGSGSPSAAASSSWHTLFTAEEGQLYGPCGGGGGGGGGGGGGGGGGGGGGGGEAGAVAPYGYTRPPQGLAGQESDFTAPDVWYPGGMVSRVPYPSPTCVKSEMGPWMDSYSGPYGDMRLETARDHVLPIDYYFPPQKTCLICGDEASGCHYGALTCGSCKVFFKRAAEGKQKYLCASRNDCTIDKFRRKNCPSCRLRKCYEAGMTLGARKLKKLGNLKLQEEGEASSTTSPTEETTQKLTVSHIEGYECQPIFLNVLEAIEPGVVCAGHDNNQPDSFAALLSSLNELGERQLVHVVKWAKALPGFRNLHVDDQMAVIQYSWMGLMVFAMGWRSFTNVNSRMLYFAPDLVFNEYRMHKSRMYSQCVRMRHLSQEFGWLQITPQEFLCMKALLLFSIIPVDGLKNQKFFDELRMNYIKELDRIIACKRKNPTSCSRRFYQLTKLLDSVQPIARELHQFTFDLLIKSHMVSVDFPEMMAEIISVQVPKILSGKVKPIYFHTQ

A further test concerns the target T2, Estrogen receptor (Homo sapiens, UniProt P03372).
T2 sequence (P03372 whole entry): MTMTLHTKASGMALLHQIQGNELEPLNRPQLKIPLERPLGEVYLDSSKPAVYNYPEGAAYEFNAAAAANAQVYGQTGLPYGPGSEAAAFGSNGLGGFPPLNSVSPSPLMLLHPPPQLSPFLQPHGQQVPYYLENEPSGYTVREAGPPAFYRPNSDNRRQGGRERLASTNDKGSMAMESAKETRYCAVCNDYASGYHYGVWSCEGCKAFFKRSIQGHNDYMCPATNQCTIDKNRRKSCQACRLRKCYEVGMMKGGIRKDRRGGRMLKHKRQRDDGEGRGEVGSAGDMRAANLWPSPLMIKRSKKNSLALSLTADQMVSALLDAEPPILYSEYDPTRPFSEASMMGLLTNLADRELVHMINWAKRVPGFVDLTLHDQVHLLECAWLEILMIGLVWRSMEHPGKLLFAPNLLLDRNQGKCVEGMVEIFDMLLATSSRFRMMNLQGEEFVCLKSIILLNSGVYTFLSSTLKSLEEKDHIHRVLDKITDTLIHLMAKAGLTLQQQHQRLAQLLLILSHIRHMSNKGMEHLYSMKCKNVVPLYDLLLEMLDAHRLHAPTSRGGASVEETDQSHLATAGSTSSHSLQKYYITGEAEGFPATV

Test [2] concerns the target T3, 5-hydroxytryptamine receptor 1A (Homo sapiens, UniProt P08908).
T3 sequence (P08908 whole entry): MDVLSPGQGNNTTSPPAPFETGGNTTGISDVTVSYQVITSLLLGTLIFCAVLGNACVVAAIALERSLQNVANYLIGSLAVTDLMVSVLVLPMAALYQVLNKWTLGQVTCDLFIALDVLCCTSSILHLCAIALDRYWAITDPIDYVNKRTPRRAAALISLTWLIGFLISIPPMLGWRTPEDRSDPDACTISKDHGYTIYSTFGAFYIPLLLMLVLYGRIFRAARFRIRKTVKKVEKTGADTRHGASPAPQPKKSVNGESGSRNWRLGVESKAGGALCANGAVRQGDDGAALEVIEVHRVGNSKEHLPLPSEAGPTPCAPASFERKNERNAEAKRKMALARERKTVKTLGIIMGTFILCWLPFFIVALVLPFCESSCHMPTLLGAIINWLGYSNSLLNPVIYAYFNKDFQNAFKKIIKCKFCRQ

A further test addresses T4, Thromboxane A2 receptor (Homo sapiens, UniProt P21731).
T4 sequence (P21731 whole entry): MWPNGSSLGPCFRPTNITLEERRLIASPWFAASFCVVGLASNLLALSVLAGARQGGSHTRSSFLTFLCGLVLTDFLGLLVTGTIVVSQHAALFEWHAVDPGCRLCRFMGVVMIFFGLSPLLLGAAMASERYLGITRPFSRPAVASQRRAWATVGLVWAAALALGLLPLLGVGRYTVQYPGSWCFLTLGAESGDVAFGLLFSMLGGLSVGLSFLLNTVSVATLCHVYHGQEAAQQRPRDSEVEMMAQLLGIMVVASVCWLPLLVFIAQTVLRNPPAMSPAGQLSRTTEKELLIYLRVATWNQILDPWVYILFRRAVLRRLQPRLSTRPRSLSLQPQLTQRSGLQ
Format: functional, cell-based.

Test [3] deals with Gamma-aminobutyric acid receptor subunit alpha-1/alpha-2/beta-2/gamma-2 (Homo sapiens, UniProt P14867+P18507+P47869+P47870). In kind it is protein-complex assay.
Sequence of Gamma-aminobutyric acid receptor subunit alpha-1/alpha-2/beta-2/gamma-2 (P14867 whole entry): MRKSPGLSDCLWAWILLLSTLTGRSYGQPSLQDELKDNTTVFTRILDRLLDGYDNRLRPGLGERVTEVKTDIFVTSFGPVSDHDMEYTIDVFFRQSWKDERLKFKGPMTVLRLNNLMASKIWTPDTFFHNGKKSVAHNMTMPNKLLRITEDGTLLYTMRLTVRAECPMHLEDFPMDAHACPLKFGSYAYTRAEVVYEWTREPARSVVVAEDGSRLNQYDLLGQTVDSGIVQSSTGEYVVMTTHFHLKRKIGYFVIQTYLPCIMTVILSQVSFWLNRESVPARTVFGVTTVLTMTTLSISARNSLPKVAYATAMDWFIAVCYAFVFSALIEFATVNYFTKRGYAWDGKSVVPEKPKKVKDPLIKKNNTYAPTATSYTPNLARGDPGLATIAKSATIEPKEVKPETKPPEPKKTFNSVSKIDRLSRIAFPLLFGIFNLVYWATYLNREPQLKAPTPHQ
Sequence of Gamma-aminobutyric acid receptor subunit alpha-1/alpha-2/beta-2/gamma-2 (P47870 whole entry): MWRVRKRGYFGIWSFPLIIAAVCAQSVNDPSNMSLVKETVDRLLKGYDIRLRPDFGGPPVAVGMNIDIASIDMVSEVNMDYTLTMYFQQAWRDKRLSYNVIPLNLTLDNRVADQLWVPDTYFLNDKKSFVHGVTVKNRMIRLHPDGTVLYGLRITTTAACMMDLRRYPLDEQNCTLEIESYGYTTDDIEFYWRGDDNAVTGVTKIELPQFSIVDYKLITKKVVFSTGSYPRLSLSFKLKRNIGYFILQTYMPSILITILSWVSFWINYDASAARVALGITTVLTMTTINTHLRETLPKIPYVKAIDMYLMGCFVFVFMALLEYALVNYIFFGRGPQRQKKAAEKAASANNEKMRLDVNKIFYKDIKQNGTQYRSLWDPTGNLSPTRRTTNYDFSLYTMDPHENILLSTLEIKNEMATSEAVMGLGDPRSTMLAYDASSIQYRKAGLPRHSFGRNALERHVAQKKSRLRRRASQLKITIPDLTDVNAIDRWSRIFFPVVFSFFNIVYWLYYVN
Sequence of Gamma-aminobutyric acid receptor subunit alpha-1/alpha-2/beta-2/gamma-2 (P18507 whole entry): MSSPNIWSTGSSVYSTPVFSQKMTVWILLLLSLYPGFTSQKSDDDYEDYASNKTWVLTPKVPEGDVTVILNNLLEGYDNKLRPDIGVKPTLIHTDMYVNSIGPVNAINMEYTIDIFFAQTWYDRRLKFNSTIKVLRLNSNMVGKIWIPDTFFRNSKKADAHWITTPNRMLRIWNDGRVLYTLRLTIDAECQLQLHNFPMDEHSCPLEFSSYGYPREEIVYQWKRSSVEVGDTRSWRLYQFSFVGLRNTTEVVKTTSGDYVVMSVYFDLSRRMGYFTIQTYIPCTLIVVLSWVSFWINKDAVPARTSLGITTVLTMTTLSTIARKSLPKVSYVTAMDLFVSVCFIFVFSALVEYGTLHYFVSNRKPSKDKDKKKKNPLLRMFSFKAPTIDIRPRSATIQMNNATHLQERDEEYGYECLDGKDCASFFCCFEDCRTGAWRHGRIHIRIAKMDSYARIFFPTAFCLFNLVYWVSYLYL
Sequence of Gamma-aminobutyric acid receptor subunit alpha-1/alpha-2/beta-2/gamma-2 (P47869 whole entry): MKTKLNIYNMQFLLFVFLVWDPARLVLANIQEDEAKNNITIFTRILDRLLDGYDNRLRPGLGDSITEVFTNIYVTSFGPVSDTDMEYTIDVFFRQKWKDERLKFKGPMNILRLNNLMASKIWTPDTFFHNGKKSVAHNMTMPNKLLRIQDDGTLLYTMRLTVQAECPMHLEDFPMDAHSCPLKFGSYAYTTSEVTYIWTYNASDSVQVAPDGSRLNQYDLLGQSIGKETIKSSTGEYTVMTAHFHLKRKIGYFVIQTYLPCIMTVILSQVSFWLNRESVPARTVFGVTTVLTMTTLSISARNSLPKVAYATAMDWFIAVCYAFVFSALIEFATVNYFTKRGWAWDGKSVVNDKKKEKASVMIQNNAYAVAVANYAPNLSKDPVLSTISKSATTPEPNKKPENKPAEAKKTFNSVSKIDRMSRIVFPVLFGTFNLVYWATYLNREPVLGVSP
For test [4], the target named is T5, Muscarinic acetylcholine receptor M1 (Homo sapiens, UniProt P11229).
T5 sequence (P11229 whole entry): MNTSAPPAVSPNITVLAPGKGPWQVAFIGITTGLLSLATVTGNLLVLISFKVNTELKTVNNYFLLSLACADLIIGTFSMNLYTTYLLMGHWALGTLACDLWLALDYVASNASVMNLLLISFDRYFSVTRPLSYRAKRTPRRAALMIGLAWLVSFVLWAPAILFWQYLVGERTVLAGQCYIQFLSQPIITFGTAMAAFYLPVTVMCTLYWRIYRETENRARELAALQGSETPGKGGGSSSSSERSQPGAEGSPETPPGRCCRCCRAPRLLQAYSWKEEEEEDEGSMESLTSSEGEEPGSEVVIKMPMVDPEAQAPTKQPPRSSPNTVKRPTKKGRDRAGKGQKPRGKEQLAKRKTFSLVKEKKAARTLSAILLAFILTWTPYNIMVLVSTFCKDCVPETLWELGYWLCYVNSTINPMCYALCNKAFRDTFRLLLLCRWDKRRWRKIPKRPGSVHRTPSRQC
In kind it is functional, cell-based.

Test [5] has as its target Gamma-aminobutyric acid receptor subunit alpha-1 (Rattus norvegicus, UniProt P62813).
Further: assay procedure not described here.

Sequence of Neuronal acetylcholine receptor subunit alpha-4 (P43681 whole entry): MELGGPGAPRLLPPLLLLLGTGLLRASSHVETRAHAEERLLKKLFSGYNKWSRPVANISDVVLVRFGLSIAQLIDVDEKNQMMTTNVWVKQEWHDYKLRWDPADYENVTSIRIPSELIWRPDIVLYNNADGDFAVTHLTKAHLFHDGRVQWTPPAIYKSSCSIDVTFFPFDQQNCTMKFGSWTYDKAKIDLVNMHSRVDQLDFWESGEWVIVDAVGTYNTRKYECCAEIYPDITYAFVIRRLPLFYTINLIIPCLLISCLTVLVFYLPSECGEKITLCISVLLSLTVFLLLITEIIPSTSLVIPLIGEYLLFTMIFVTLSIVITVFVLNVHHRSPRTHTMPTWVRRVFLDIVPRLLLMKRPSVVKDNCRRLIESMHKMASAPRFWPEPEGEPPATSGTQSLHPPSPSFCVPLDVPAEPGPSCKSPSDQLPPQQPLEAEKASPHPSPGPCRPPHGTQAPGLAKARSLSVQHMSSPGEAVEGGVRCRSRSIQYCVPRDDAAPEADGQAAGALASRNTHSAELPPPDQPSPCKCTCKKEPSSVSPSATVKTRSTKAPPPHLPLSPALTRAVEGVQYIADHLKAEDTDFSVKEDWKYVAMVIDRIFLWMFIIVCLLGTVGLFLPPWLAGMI
Sequence of Gamma-aminobutyric acid receptor subunit alpha-1 (P62813 whole entry): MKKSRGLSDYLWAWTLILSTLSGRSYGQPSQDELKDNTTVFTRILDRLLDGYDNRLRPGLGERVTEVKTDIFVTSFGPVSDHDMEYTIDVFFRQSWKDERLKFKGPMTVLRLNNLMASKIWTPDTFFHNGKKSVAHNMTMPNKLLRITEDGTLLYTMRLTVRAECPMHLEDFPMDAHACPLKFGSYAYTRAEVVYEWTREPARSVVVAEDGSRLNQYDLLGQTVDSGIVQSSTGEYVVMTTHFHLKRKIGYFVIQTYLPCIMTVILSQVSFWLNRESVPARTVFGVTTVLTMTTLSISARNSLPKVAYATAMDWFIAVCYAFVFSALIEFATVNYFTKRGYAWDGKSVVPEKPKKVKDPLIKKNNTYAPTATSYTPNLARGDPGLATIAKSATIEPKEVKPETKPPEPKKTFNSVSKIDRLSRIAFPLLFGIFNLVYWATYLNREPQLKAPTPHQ

The term AC50 denotes the midpoint of the concentration-response curve, whichever way the signal moves. With `C[N+]1(CCCCC[N+]2(C)CCCC2)CCCC1` [PENTOLINIUM], the AC50 (in test [1]; on Androgen receptor; on Estrogen receptor; in test [2]; at Thromboxane A2 receptor; in test [3]) was more than 30 µM throughout. The AC50 in test [4] is more than 30 µM.
Take `CCN1CCCC1CNC(=O)c1cc(S(N)(=O)=O)ccc1OC` (centres undefined) [SULPIRIDE]: the AC50 (in test [5]; at Androgen receptor; in test [2]; on Thromboxane A2 receptor; in test [3]) was more than 30 µM each time.
With `CCOc1ccccc1OCC1CNCCO1` (centres undefined) [VILOXAZINE], the AC50 is more than 10 µM in test [1]; more than 30 µM at Androgen receptor; more than 30 µM on Estrogen receptor; 9.72 µM in test [2]; more than 30 µM at Thromboxane A2 receptor; more than 30 µM in test [3]. Moreover, in test [4], the AC50 is more than 30 µM.
